# Earlier results as cited in US10610489B2, “Pharmaceutical composition, pharmaceutical dosage form, process for their preparation, methods for treating and uses thereof” (Boehringer Ingelheim International GmbH, priority 2009, dated 2020).
# Tested on: HbA1c
# Conditions: metformin on its own, in the diabetic
structure (smiles),measurement,value
"CN(C)C(=N)N=C(N)N [metformin, dimethyldiguanide]",average improvement in the HbA1c value,1.0-1.5%
